# How the values were obtained:
# [1] = system: SKOV-3 human ovarian tumor cells; test: Survival of SKOV-3 ovarian tumor mice after intraperitoneal treatment; type: in vivo, athymic (nu/nu) mice; conditions: 73-day period following implantation; i.p. injection twenty days after implantation (108.7 μCi for ^166Ho groups)
# Method: An additional 14 SKOV-3 ovarian tumor mice received no treatment and served as the control group.
# Statistical analyses were performed to compare the fraction of mice that survived over the course of the 73-day period following implantation. […] FIG. 6.
# NSCLC A549-luc-c8 cells = test: Biodistribution after intravenous injection in NSCLC A549-luciferase tumor-bearing mice; type: in vivo, athymic (nu/nu) mice; conditions: one week after i.v. injection, 300 μCi (Example 14 particles)
# Method: NSCLC A549-luciferase tumor-bearing mice were prepared by injecting approximately one million NSCLC A549-luc-c8 cells into the lung parenchyma of athymic (nu/nu) mice. Implantation and tumor progression were monitored by detecting luciferase bioluminescence following luciferin injections. FIG. 15A.
# [2] = system: SKOV-3 human ovarian tumor cells; conditions: mouse, in vivo, ip
# Method: SKOV-3 ovarian tumor mice were prepared by injecting approximately 7×10^6 SKOV-3 human ovarian tumor cells into the peritoneal cavity of athymic (nu/nu) mice. Following a two-month incubation period, magnetic resonance imaging (MRI) was used to visualize the resultant tumors.
# Biodistribution studies were performed 24 hours after injection by removing various organs from the mice and quantifying the ^166Ho content of each organ using a 2470 Wizard Automatic Gamma Counter (PerkinElmer Inc., Waltham, Mass.).
structure (smiles),measurement,setting,value
CC(=O)C=C(C)[O][166Ho]([O]C(C)=CC(C)=O)[O]C(C)=CC(C)=O [^166Ho(AcAc)3],surviving animals,[1],66.7%
same,"^166Ho in tumors, percent initial dose per gram",NSCLC A549-luc-c8 cells,not retained
same,"^166Ho in tumors, percent initial dose per gram",[2],15.4±2.7 % ID/g

# Reference: patent US9327038B2, “Stable activatable particles as radiotherapeutic agents for the treatment of disease” (The University of North Carolina at Chapel Hill, priority 2011, dated 2016)
